Where a name gives a salt, the structure may show the parent alone.
Key:
[1] = biological target: T1, human dopamine D2 receptor (Homo sapiens, UniProt P14416); assay: [3H]-Spiperone displacement binding in CHO cells transfected with human dopamine D2 receptor; details: [3H]-Spiperone 0.5 nM, CHO cell membranes
T1 construct: expressed in transfected cells
Method: CHO cells expressing the human dopamine D2 receptor were cultured in suspension by expansion (every 3-4 days) in a serum free media to provide approximately 7.5×10^5 cells/ml. The cells were harvested by centrifugation (900×g for 10 min.), resuspended in half volume of 1×dulbecco PBS solution at pH 7.4, and after a further recentrifugation, the cell pellet was resuspended in 50 mM Tris.HCl (pH 7.4) containing 1.5 mM CaCl2, 5.0 mM EDTA, 5.0 mM KCl, 120 mM NaCl, 1.0 mM PMSF and 1.0 mg % leupeptin. The cells were homogenized, centrifuged at 40,000×g for 30 minutes and resuspended in fresh buffer (10 ml), and the process repeated twice. […] The binding assay is performed in a 96 well microtiter plate. 100 μl of buffer is added to the wells, and those receiving a displacer for nonspecific binding (NSB) assessment or test compounds receive 80 μl of incubation buffer. […] The reaction is initiated by the addition of 80 μl of the tissue membrane, and after 120 minutes at room temperature the wells are harvested using a Brandell® Harvester onto glass fiber filter presoaked in 0.1% polyethylimine.

human 5HT1A receptor = biological target: T2, human 5HT1A receptor (Homo sapiens, UniProt P08908); assay: [3H] 8-OH-DPAT displacement binding in CHO cells transfected with human 5HT1A receptor; details: [3H] 8-OH-DPAT 1.5 nM
T2 construct: expressed in transfected cells
T2 sequence (P08908 1-422): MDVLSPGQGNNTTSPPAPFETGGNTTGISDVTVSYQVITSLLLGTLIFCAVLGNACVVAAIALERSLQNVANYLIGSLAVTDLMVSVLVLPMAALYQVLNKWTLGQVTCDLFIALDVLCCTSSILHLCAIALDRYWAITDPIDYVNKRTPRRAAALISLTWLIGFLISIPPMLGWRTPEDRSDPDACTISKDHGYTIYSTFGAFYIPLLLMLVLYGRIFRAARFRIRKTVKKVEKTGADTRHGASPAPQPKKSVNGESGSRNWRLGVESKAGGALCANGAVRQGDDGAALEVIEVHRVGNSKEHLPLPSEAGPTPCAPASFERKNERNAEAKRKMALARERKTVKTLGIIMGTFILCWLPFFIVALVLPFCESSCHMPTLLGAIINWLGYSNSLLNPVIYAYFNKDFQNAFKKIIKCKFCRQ
Method: 8-OH-DPAT binding in CHO cells stabily transfected with human 5HT1A receptor. Stabily transfected CHO cells are grown in DMEM containing 10% heat inactivated FBS and non-essential amino acids. Cells are scraped off the plate, transferred to centrifuge tubes, and washed twice by centrifugation (2000 rpm for 10 min., 4° C.) in buffer (50 mM Tris pH 7.5). The resulting pellets are aliquoted and placed at −80° C. On the day of assay, the cells are thawed on ice and resuspended in buffer. The binding assay is performed in a 96 well microtiter plate in a total volume of 250 μL. […] Following a 30 minute incubation at room temperature, the reaction is terminated by the addition of ice cold buffer and rapid filtration through a GF/B filter presoaked for 30 minutes in 0.5% PEI.

serotonin transporter = biological target: T3, serotonin transporter (Rattus norvegicus, UniProt P31652); assay: 3H-Paroxetine binding to rat frontal cortical membranes; details: read-out: SSRi % Inhibition (rat brain) at 0.1 μM
T3 construct: frontal cortical membranes prepared from male S.D. rats; from tissue; host or cells: frontal cortical membranes of male Sprague-Dawley rats
Method: ^3H-Paroxetine binding to assess affinity of drugs for the serotonin transporter
A protocol similar to that used by Cheetham et al. (Neuropharmacol. 32:737, 1993) was used to determine the affinity of compounds for the serotonin transporter. Briefly, frontal cortical membranes prepared from male S.D. rats were incubated with ^3H-paroxetine (0.1 nM) for 60 min at 25° C. All tubes also contained either vehicle, test compound (one to eight concentrations), or a saturating concentration of fluoxetine (10 μM) to define […]. All reactions are terminated by the addition of ice cold Tris buffer followed by rapid filtration using a Tom Tech filtration device to separate bound from free ^3H-paroxetine. Bound radioactivity was quantitated using a Wallac 1205 Beta Plate® counter. Results achieved are expressed below as % inhibition of Paroxetine binding at a given concentration.

T1 sequence (P14416 whole entry): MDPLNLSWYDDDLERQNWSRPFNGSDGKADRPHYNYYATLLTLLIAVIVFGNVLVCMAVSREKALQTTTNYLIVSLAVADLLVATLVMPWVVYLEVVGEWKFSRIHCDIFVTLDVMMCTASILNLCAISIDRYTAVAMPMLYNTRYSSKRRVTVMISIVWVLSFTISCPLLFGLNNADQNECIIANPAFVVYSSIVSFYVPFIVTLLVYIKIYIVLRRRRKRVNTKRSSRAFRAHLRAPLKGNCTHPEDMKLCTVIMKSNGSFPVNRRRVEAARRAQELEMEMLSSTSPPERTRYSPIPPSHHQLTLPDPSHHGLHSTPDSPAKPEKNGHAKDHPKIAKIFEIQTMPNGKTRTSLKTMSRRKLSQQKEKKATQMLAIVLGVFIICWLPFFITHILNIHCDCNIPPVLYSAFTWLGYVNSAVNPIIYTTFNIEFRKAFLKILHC
T3 sequence (P31652 whole entry): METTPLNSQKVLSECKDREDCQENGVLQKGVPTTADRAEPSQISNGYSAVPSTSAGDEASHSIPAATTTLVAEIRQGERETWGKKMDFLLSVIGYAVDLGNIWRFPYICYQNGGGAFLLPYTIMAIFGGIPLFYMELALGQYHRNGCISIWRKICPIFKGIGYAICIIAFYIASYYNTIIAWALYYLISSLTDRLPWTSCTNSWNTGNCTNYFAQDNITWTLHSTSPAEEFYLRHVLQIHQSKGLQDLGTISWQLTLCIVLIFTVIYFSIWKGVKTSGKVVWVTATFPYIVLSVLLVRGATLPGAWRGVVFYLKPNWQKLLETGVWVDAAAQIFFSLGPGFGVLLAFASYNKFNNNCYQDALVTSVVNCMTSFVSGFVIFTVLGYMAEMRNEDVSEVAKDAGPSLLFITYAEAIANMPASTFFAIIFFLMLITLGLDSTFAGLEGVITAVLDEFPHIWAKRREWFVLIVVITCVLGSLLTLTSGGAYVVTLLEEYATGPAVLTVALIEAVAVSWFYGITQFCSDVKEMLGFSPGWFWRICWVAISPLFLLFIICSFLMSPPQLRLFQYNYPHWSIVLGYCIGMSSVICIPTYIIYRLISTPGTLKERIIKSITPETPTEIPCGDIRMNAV

SMILES: OC(COc1ccc(F)cc1)CN1CCN(c2cccc3[nH]ccc23)CC1 (stereo not shown) [Example 6, 1-(4-Fluoro-phenoxy)-3-[4-(1H-indol-4-yl)piperazin-1-yl]-propan-2-ol]
- Ki [1]: 10.4 nM
- Ki (human 5HT1A receptor): 10.4 nM
- inhibition at 0.1 µM (serotonin transporter): 0%

SMILES: COc1ccc(OCC(O)CN2CCN(c3cccc4[nH]ccc34)CC2)cc1 (stereo not shown) [Example 3, 1-[4-(1H-Indol-4-yl)-piperazin-1-yl]-3-(4-methoxy-phenoxy)-propan-2-ol]
- Ki (human 5HT1A receptor): 1.8 nM
- inhibition at 0.1 µM (serotonin transporter): 17%

SMILES: OC(COc1ccccc1-c1ccccc1)CN1CCN(c2cccc3[nH]ccc23)CC1 (stereo not shown) (as salt: fumaric acid salt) [Example 8, 1-(Biphenyl-2-yloxy)-3-[4-(1H-indol-4-yl)piperazin-1-yl]-propan-2-ol]
- melting point: 214 to 215 °C

SMILES: OC(COc1ccc(Cl)cc1)CN1CCN(c2cccc3[nH]ccc23)CC1 (stereo not shown) (as salt: fumaric acid salt) [Example 2, 1-(4-Chloro-phenoxy)-3-[4-(1H-indol-4-yl)piperazin-1-yl]-propan-2-ol]
- melting point: 224 to 225 °C

SMILES: OC(COc1ccccc1Cl)CN1CCN(c2cccc3[nH]ccc23)CC1 (stereo not shown) [Example 5, 1-(2-Chloro-phenoxy)-3-[4-(1H-indol-4-yl)piperazin-1-yl]-propan-2-ol]
- Ki [1]: 31.9 nM
- Ki (human 5HT1A receptor): 12.1 nM
- inhibition at 0.1 µM (serotonin transporter): 11%

SMILES: OC(COc1cccc2[nH]ccc12)CN1CCN(c2cccc3[nH]ccc23)CC1 (stereo not shown) [Example 1, 1-(1H-Indol-4-yloxy)-3-[4-(1H-indol-4-yl)piperazin-1-yl]-propan-2-ol]
- Ki (human 5HT1A receptor): 6 nM
- inhibition at 0.1 µM (serotonin transporter): 32%

SMILES: O=[N+]([O-])c1ccc(OCC(O)CN2CCN(c3cccc4[nH]ccc34)CC2)cc1 (stereo not shown) [Example 4, 1-[4-(1H-Indol-4-yl)-piperazin-1-yl]-3-(4-nitro-phenoxy)-propan-2-ol]
- Ki (human 5HT1A receptor): 8.8 nM
- inhibition at 0.1 µM (serotonin transporter): 15%

SMILES: O=[N+]([O-])c1ccc(OCC(O)CN2CCN(c3cccc4[nH]ccc34)CC2)cc1 (stereo not shown) (as salt: HCl) [Example 4, 1-[4-(1H-Indol-4-yl)-piperazin-1-yl]-3-(4-nitro-phenoxy)-propan-2-ol]
- melting point: 248 °C

SMILES: OC(COc1cccc2[nH]ccc12)CN1CCN(c2cccc3[nH]ccc23)CC1 (stereo not shown) (as salt: fumaric acid salt) [Example 1, 1-(1H-Indol-4-yloxy)-3-[4-(1H-indol-4-yl)piperazin-1-yl]-propan-2-ol]
- melting point: 147 to 150 °C

SMILES: OC(COc1ccc(F)cc1)CN1CCN(c2cccc3[nH]ccc23)CC1 (stereo not shown) (as salt: fumaric acid salt) [Example 6, 1-(4-Fluoro-phenoxy)-3-[4-(1H-indol-4-yl)piperazin-1-yl]-propan-2-ol]
- melting point: 234 to 235 °C

SMILES: OC(COc1ccc(Cl)cc1)CN1CCN(c2cccc3[nH]ccc23)CC1 (stereo not shown) [Example 2, 1-(4-Chloro-phenoxy)-3-[4-(1H-indol-4-yl)piperazin-1-yl]-propan-2-ol]
- Ki [1]: 33.5 nM
- Ki (human 5HT1A receptor): 7.6 nM
- inhibition at 0.1 µM (serotonin transporter): 13%

SMILES: OC(COc1ccccc1Cl)CN1CCN(c2cccc3[nH]ccc23)CC1 (stereo not shown) (as salt: fumaric acid salt) [Example 5, 1-(2-Chloro-phenoxy)-3-[4-(1H-indol-4-yl)piperazin-1-yl]-propan-2-ol]
- melting point: 207 °C

SMILES: OC(COc1ccccc1-c1ccccc1)CN1CCN(c2cccc3[nH]ccc23)CC1 (stereo not shown) [Example 8, 1-(Biphenyl-2-yloxy)-3-[4-(1H-indol-4-yl)piperazin-1-yl]-propan-2-ol]
- Ki (human 5HT1A receptor): 4.5 nM
- inhibition at 0.1 µM (serotonin transporter): 0%

SMILES: NC(=O)c1cc2c(OCC(O)CN3CCN(c4cccc5[nH]ccc45)CC3)cccc2[nH]1 (stereo not shown) [Example 7, 4 {2-Hydroxy-3-[4-(1H-indol-4-yl)-piperazin-1-yl]propoxy}-1H-indole-2-carboxylic acid amide]
- Ki (human 5HT1A receptor): 7.2 nM
- inhibition at 0.1 µM (serotonin transporter): 3%

— patent US6689792B2, “Antipsychotic indolyl derivatives” (Wyeth, priority 1998, dated 2004)
